US8663616B2, “Enzymatic peracid generation for use in oral care products” (E I du Pont de Nemours and Company, priority 2010, dated 2014)

T1: Wild Type (SEQ ID NO: 16) (Thermotoga maritima, UniProt Q9WXT2)
T1 construct: made in house; host or cells: E. coli
T1 sequence (Q9WXT2 1-325): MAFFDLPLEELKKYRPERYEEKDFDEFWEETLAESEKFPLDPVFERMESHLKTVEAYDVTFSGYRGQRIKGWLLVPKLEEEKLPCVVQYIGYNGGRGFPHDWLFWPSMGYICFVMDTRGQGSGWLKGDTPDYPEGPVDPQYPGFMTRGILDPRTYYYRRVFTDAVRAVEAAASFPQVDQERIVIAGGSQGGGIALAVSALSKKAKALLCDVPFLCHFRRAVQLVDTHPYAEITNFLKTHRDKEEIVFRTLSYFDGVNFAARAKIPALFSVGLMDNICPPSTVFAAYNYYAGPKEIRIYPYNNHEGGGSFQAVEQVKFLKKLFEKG


How the values were obtained:
C277S (SEQ ID NO: 424) = target: T2, C277S (SEQ ID NO: 424) (Thermotoga maritima, UniProt Q9WXT2, C277S); assay type: biochemical; conditions: 100 mM ester, 60 mM H2O2, 40 ppm enzyme, 95 mM phosphate pH 7.2, 37° C.
T2 construct: made in house; host or cells: E. coli
Method: (§1) To test various enzymes against an ester substrate, it was convenient to run up to 4 reactions simultaneously by staggering the beginning of each individual reaction by 0.5-1 min. Each individual reaction was performed in a glass vessel (height: 76 mm; o.d.: 33 mm; i.d.: 24 mm) equipped with a magnetic stirring bar. Four reaction vessels were banded together and kept at constant temperature in a jacketed one-liter, stainless steel, tempering beaker (KGW IsoTherm, # TSS-G 1000W) with circulating water controlled by a Thermo NesLab recirculation bath (Model # RTE-7 Digital One). Buffer (6 mL, 100 mM sodium phosphate buffer, pH 7.2) was added to each reaction vessel and allowed to equilibrate to 37° C. The ester substrate of interest was added to achieve 100 mM concentration. […] To follow the production of peracetic acid, 80 μL samples from each reaction were removed at specific intervals from 1 to 15 minutes. The sample was immediately quenched in a microfuge filter tube (NanoSep 30K VWR cat #82031-354) containing a volume and concentration of phosphoric acid solution that was sufficient to stop the enzymatic reaction (by lowering the pH between 2 and 3) and to dilute the sample for convenient HPLC analyses. The acid-quenched samples were centrifuged for 5 minutes to remove any particulates.

C277T (SEQ ID NO: 437) = target: T3, C277T (SEQ ID NO: 437) (Thermotoga maritima, UniProt Q9WXT2, C277T); assay type: biochemical; conditions: 100 mM ester, 60 mM H2O2, 40 ppm enzyme, 95 mM phosphate pH 7.2, 37° C.
T3 construct: made in house; host or cells: E. coli
Method: as §1

[1] = target: T4, C277T/R296P (SEQ ID NO: 476) (Thermotoga maritima, UniProt Q9WXT2, C277T/R296P); assay type: biochemical; conditions: 100 mM ester, 60 mM H2O2, 40 ppm enzyme, 95 mM phosphate pH 7.2, 37° C.
T4 construct: made in house; host or cells: E. coli
Method: as §1

[2] = target: T1, Wild Type (SEQ ID NO: 16); experiment: Maximum peracetic acid from ester substrates with wild type perhydrolase (Example 14); assay type: biochemical; conditions: 100 mM ester, 60 mM H2O2, 40 ppm enzyme, 95 mM phosphate pH 7.2, 37° C.
Method: as §1

[3] = Retention of perhydrolase on hydroxyapatite (SDS-PAGE band strength); assay type: binding; conditions: relative to enzyme input = 1
Method: Perhydrolase enzymes listed in Table 6 were assessed for binding to hydroxyapatite. A dispersion of hydroxyapatite nanoparticles (Aldrich 677418) was made at 0.5% solids in 10 mM phosphate buffer at pH 7.2. Enzyme stock solution was added to the hydroxyapatite dispersion to a final concentration of 10 μM and incubated for 30 min in a microcentrifuge tube with gentle agitation. Each sample was centrifuged for 5 min at 10000 rpm. The supernatant was removed and additional buffer was added. The particles were resuspended and transferred to a new tube. The process was repeated two additional times. Samples of the original input of enzyme, the supernatant removed from the particles with each wash step and the final particles were prepared for SDS-PAGE analysis by combining 60 μL of sample, 20 μL of LDS buffer and 8 μL of reducing agent (Nu-PAGE). Samples were heated at 85° C. for 10 min. 25 μL of each sample was loaded on a 4-12% BisTris gel (Invitrogen) and run at 115 volts for 1.5 h. The gel was removed and stained with a 1:1 dilution of Simply Blue stain (Invitrogen) overnight and destained for 4 h in deionized water. The gel was analyzed and detection of enzyme in each fraction was estimated based on the presence of a band. The results of the analysis are provided in Table 7 with an indication of the relative strength of each band in the gel compared to the enzyme input (input=1) to determine the strength of binding between the hydroxyapatite surface and each enzyme.

[4] = Two-step bleaching of coffee-tea stained bovine enamel (Example 16)
Method: Bovine enamel incisors were prepared as indicated in Example 1. The stained enamel blocks were embedded in a 48 well plate to protect the dentin backside from solution exposure. A solution of 10 μM of each enzyme in 10 mM phosphate buffer, pH 7.2 was prepared and 500 μL of solution was incubated with each enamel substrate for 60 min. The enzyme solution was removed and each well was rinsed three times with an additional 500 μL of buffer. The enamel blocks were placed in a fresh well for the whitening process. A solution with a final concentration of 40 mM triacetin, 100 mM H2O2 in 50 mM phosphate pH 7.2 buffer was freshly prepared and 500 μL of solution was added to each enamel block. Over the course of 1 hr the enamel blocks were removed and a color measurement was obtained and then each was returned to the solution in the well plate. The whiteness index for each sample was monitored.

T3 sequence (Q9WXT2 whole entry C277T): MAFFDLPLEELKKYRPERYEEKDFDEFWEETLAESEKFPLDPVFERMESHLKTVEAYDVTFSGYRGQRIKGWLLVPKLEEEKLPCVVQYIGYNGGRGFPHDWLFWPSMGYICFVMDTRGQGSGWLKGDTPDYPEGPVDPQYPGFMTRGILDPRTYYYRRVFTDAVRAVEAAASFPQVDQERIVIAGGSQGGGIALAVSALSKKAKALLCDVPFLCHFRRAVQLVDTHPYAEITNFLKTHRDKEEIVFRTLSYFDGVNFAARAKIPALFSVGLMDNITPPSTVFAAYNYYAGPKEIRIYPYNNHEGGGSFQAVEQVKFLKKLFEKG
T4 sequence (Q9WXT2 whole entry C277T/R296P): as the sequence (Q9WXT2 whole entry C277T) above, with R296P counted along it

Molecule	Maximum Peracetic Acid (PAA) (ppm), C277S (SEQ ID NO: 424) (C277S (SEQ ID NO: 424)) [ppm]	Maximum Peracetic Acid (PAA) (ppm), C277T (SEQ ID NO: 437) (C277T (SEQ ID NO: 437)) [ppm]	Maximum Peracetic Acid (PAA) (ppm), C277T/R296P (SEQ ID NO: 476) [1] [ppm]	Maximum Peracetic Acid (PAA) (ppm), Wild Type (SEQ ID NO: 16) [2] [ppm]	further results
CC(=O)OC[C@H]1O[C@@H](OC(C)=O)[C@H](OC(C)=O)[C@@H](OC(C)=O)[C@@H]1OC(C)=O [β-D-glucose pentaacetate]	2178	2531	1716	1158	–
CC(=O)OCc1ccc(C=O)o1 [5-acetoxymethyl-2-furaldehyde]	1185	1125	1136	778	–
CC(=O)N[C@@H]1[C@@H](OC(C)=O)[C@H](OC(C)=O)[C@@H](COC(C)=O)O[C@@H]1Cl [2-acetamido-2-deoxy-3,4,6 triacetyl-1-chloride-α-D-glucopyranose]	863	899	876	548	–
CC(=O)OC[C@H]1O[C@@H](OC(C)=O)[C@H](OC(C)=O)[C@H]1OC(C)=O [β-D-xylofuranose tetraacetate]	3354	3481	3158	2384	–
CC(=O)OC[C@H](OC(C)=O)[C@@H](OC(C)=O)[C@H](OC(C)=O)[C@@H](COC(C)=O)OC(C)=O [Sorbitol hexaacetate]	712	705	616	381	–
C=CC(COC(C)=O)OC(C)=O (stereo not drawn) [3,4-diacetoxy-1-butene]	2281	2285	2478	1692	–
CO[C@@H]1OC[C@@H](OC(C)=O)[C@H](OC(C)=O)[C@H]1OC(C)=O [β-methyl xyloside triacetin]	3856	3635	–	–	–
COCC(C)OC(C)=O (stereo not drawn) [Propylene glycol methyl ether acetate]	173	197	181	177	–
CC(=O)OCCOCCOC(C)=O [Diethylene glycol diacetate]	469	653	530	424	–
CC(=O)OCC(O)COC(C)=O [Diacetin]	1013	1132	1087	1160	–
CC(=O)OC[C@H]1O[C@@H](S)[C@H](OC(C)=O)[C@@H](OC(C)=O)[C@@H]1OC(C)=O [1-thio-β-D glucose-2,3,4,6-tetraacetate]	0	171	147	156	–
CC(=O)Oc1ccc(C(=O)O)cc1 [4-acetoxybenzoic acid]	604	426	485	398	–
CC(=O)OCCOC(C)=O [Ethylene glycol diacetate]	1007	1059	1020	794	–
CC(=O)OC[C@H]1O[C@@H](OC(C)=O)[C@H](OC(C)=O)[C@@H](OC(C)=O)[C@H]1OC(C)=O [β-D-galactose pentaacetate]	2539	2546	1947	764	–
CC(=O)O[C@@H]1O[C@H](CO)[C@@H](OC(C)=O)[C@H](OC(C)=O)[C@H]1OC(C)=O [β-D-glucopyranose,1,2,3,4-tetraacetate]	2309	2225	2235	2129	–
CC(=O)OCCCCCOC(C)=O [1,5-pentanediol diacetate]	335	484	364	435	–
CC(=O)OC1OC[C@@H](OC(C)=O)[C@@H](OC(C)=O)[C@H]1OC(C)=O (stereo partly drawn) [1,2,3,4-tetra-O-acetyl-ribopyranose]	3525	3361	3503	2278	–
CC(=O)OC[C@H]1O[C@H](OC(C)=O)[C@@H](OC(C)=O)[C@@H](OC(C)=O)[C@@H]1OC(C)=O [α-D-mannopyranose pentaacetate]	4017	4212	3752	4023	–
CC(=O)OC[C@H]1OC(OC(C)=O)[C@@H](O)[C@@H](OC(C)=O)[C@@H]1OC(C)=O (stereo partly drawn) [1,3,4,6-tetra-O-acetyl-mannopyranose]	3593	3436	–	2361	–
EZ-4: C277S-link1-(GK)5, SEQ ID NO: 427 (protein) MAFFDLPLEELKKYRPERYEEKDFDEFWEETLAESEKFPLDPVFERMESHLKTVEAYDVTFSGYRGQRIKGWLLVPKLEEEKLPCVVQYIGYNGGRGFPHDWLFWPSMGYICFVMDTRGQGSGWLKGDTPDYPEGPVDPQYPGFMTRGILDPRTYYYRRVFTDAVRAVEAAASFPQVDQERIVIAGGSQGGGIALAVSALSKKAKALLCDVPFLCHFRRAVQLVDTHPYAEITNFLKTHRDKEEIVFRTLSYFDGVNFAARAKIPALFSVGLMDNISPPSTVFAAYNYYAGPKEIRIYPYNNHEGGGSFQAVEQVKFLKKLFEKGGPGSGGAGSPGSAGGPGSGKGKGKGKGK	–	–	–	–	Unbound (relative band strength) ([3]; 10 μM enzyme, 0.5% hydroxyapatite, pH 7.2): 0.5; HAP Particles (relative band strength) ([3]; enzyme retained on particles after washes): 0.4; Wash1 (relative band strength) [3]: 0.05; Wash2 (relative band strength) [3]: 0.05; Whiteness Index 0 min ([4]; two-step: 10 μM enzyme 60 min, rinsed, then 40 mM triacetin, 100 mM H2O2, pH 7.2, before step 2): −158.9; ΔWI ([4]; two-step, 0 to 60 min): 69.4; Whiteness Index 5 min ([4]; two-step, 5 min in triacetin/H2O2): −143.6; Whiteness Index 15 min ([4]; two-step, 15 min in triacetin/H2O2): −149.5; Whiteness Index 30 min ([4]; two-step, 30 min in triacetin/H2O2): −129.4; Whiteness Index 45 min ([4]; two-step, 45 min in triacetin/H2O2): −106.5; Whiteness Index 60 min ([4]; two-step, 60 min in triacetin/H2O2): −89.5
